Reference: US20070218504A1, “HUMAN LEPTIN-DERIVED POLYPEPTIDES AND USES THEREOF” (UNIVERSITY OF PITTSBURGH, priority 2006, published 2007)
“Also recorded” adds a separate entry of the source.

Experiments:
recombinant human leptin = biological target: T1, recombinant human leptin (Homo sapiens, UniProt P41159); assay: Immuno-precipitation assay of direct binding of human CRP and human leptin; details: leptin/CRP mixture and human serum; Western blot with anti-CRP
T1 construct: purchased AF Parlow of NHPP, Torrance, CA
T1 sequence (P41159 22-167): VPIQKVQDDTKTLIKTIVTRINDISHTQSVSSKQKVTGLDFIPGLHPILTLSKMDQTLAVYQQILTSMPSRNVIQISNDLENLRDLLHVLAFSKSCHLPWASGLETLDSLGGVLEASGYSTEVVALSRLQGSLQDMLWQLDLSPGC
Experimental: To explore a physical interaction between CRP and leptin, the direct binding of these proteins was determined by an immuno-precipitation assay. Rat CRP was purified from fresh rat serum to >95% purity employing a previously established affinity-purification protocol (20). […] The purified human- and rat-CRP proteins were pre-mixed with recombinant human and mouse leptin, respectively, before addition of antibodies specific for human- and mouse-leptin. The concentrations of CRP and leptin in the precipitation reaction were all within the physiological ranges that have been observed in humans or rats (11 & 15). In parallel experiments, recombinant leptin also was pre-mixed with human- or rat-serum to allow for direct interaction prior to immuno-precipitation. The protein precipitates obtained were subjected to Western blot assays using specific anti-CRP antibodies.

[1] = tested on: tyrosine phosphorylation of STAT3; assay: Leptin-induced tyrosine phosphorylation of STAT3 in HEK293 cells over-expressing OB-Rb in the presence of CRP (Western blot); type: cell-based, human
Experimental: To determine if the interaction between CRP and leptin dampens the cellular actions of leptin, the ability of leptin to stimulate tyrosine phosphorylation of STAT3 and PI3-kinase activity was assessed in the presence of CRP in vitro. HEK293 cells over-expressing OB-Rb were serum starved for 2 hours before addition of leptin and CRP (CHEMICON or EMD Biosciences). Leptin, in the presence or absence of CRP, was pre-incubated in μ-MEM (with additional 1 mM Ca^2+) for 30 minutes at 37° C. before being applied to the cells. After a 30-minute incubation with leptin, the cells were harvested in lysis buffer (18). The resultant protein extract was subjected to a Western blot analysis using an anti-phospho-STAT3 specific antibody (Cell Signaling, Beverly, Mass.). For studies involving primary hypothalamic neurons, the hypothalamus from rats was surgically isolated immediately after euthanasia, and placed in the DMEM for incubation with leptin in the presence or absence of CRP.

ob/ob mice = assay: Co-infusion of polypeptide E with human CRP and leptin through mini-osmotic pumps into ob/ob mice; type: in vivo, mouse
Experimental: FIG. 11. […] Infusion dosages for human CRP and leptin were 48 μg/day/mouse and 12 μg/day/mouse, respectively. The infusion rate for Pep-E (P) was 24 μg/day/mouse (medium dosage, “m”) and 48 μg/day/mouse (high dosage, “h”). Food-intake (A and C) and body weight (B and D) were monitored daily throughout the infusion. The arrows in A-D indicate the day of surgery. At the end of infusion, blood samples were collected for the measurement of blood-glucose, human CRP, and human leptin. The serum concentrations of human CRP and human leptin were 0.85±0.1 μg/ml and 18 ng±2 ng/ml, respectively. […] Also shown is glucose concentration from mice infused with human CRP and leptin but not with Pep-E.
In the in vivo experiment, polypeptide E was co-infused through mini-osmotic pumps with human CRP and leptin into the ob/ob mice. Food intake in the period of 24 hours and body weight were followed during the infusion period (FIGS. 11A-11D).

CRP = assay: Leptin's effect on CRP secretion and expression in human hepatocytes (Western, real-time RT-PCR); type: cell-based
Source text: Human hepatocytes were isolated from donor livers. Briefly, the livers were perfused in a three-step process. A calcium-free buffer supplemented with EGTA is used to break […] junctions, which is followed by the same perfusion buffer without EGTA. Finally, a calcium-containing buffer supplemented with digestive enzymes (collagenase and DNase) was used. Following digestion, parenchymal hepatocytes were isolated by three steps of low-speed centrifugation. Cells with a viability of at least 85% were plated and cultured in hepatocytes maintenance medium (HMM) (Cambrex BioScience, Walkersville, Md.) supplemented with 10% fetal bovine serum (FBS), 0.1 μM dexamethasone, 0.1 μM insulin, and 50 μg/ml gentamicin on collagen-coated tissue culture dishes for 2-4 hours. The cells were subsequently cultured in the above medium without FBS.
Approximately 24 hours after seeded, the hepatocytes were washed with serum-free HMM supplemented with 0.1 μM dexamethasone and 0.1 μM insulin, and then cultured in the same medium for another 48 hours. Subsequently, the cells were switched to serum-free HMM supplemented with 0.1 μM dexamethasone before stimulated with leptin (NHPP) or rhIL-6 (R&D Systems, Minneapolis, Minn.) for 24 hours or 48 hours. For experiments involving PI3-kinase inhibitors, hepatocytes were pretreated with LY294002 (EMD Biosciences, Calif.) for 1 hour before hormonal stimulation.
Hepatocytes were isolated and treated as described in Example 4. Culture medium was centrifuged to remove detached cells and then heated at 95° C. for 5 minutes in SDS-sample buffer (Boston Bioproducts, Mass.). After separation on 10% SDS polyacrylamide gels, proteins were electro-transferred overnight to nitrocellulose membranes. Pre-blocked using 5% non-fat milk in PBS with 0.5% Tween 20, the membranes were incubated with appropriate primary antibody for 2 hours at room temperature, washed and incubated for 1 hour with a corresponding […] at room temperature. […]
CRP mRNA expression was measured by quantitative real-time RT-PCR. […]

Substance: human CRP: human C-reactive protein, purified preparation from a commercial source
- co-precipitation of CRP with anti-human leptin antibody (recombinant human leptin): could pull down human CRP
- calcium dependence of attenuation of leptin signaling ([1]; excess EGTA added to the medium): requires the presence of calcium ions
- effect of CRP on human leptin-induced tyrosine phosphorylation of STAT3 ([1]; HEK293 OB-Rb): attenuating effects; also recorded: caused the reduction of leptin-stimulated STAT3 activation; also recorded: attenuate
- effect of CRP on human leptin-induced tyrosine phosphorylation of STAT3 ([1]; HEK293 OB-Rb, listed as Human CRP): suppressed the activation of STAT3; also recorded: suppresses activation of STAT3
- effect of CRP on murine leptin-induced tyrosine phosphorylation of STAT3 ([1]; murine/mouse leptin, HEK293 OB-Rb): does not have attenuation effect; also recorded: unable to block
- serum concentration of human CRP (ob/ob mice; end of infusion, 48 μg/day/mouse): 850 ± 100 ng/mL
- effect of human CRP on satiety and weight-reducing effects of human leptin in the absence of the polypeptide (ob/ob mice; human CRP 48 μg/day/mouse, leptin 12 μg/day/mouse): able to block the satiety and weight-reducing effects

Substance: human leptin: human recombinant leptin
- effect on CRP gene expression, short treatment (CRP; 6-8 hours): did not influence CRP gene expression
- effect on secreted CRP in the culture medium (CRP; human hepatocytes, physiological leptin concentrations, 24 hours): dose-dependent positive effect
- effect on human CRP mRNA expression (CRP; real-time PCR): dosage-dependent effect
